# Results taken from patent US20130165520A1, “Hybrid Molecule Having Mixed Retinoic Acid Receptor Agonism and Histone Deacetylase Inhibitory Properties” (priority 2010, published 2013).
# What was measured:
# SNB-75 = experiment: cells; conditions: Homo sapiens, SNB-75, 48 h
# NCI-H460 [1] = conditions: NCI-H460 (Non-Small cell lung cancer); 48 h
# NCI-H23 = experiment: cells; conditions: Homo sapiens, NCI-H23, 48 h
# KM12 = experiment: cells; conditions: Homo sapiens, KM12, 48 h
# SNB-19 = SNB-19 (CNS); 48 h
# [2] = test system: acetylated histone H4 and p53 in MDA-MB-231 cells; experiment: Western blotting of acetylated histone H4 and p53; conditions: 10 μM, 18-24 h time course
# Protocol: The potential of 3 to act as an HDACi and cause deacetylation of a synthetic substrate or hyperacetylation of HDACs target proteins was subsequently assessed. […] Intracellular HDACi activity was assessed by measuring levels of acetylated histone H4 and tumor suppressor protein p53 in MDA-MB-231 cells by Western blotting.
# Western Blotting: MDA-MB-231 cells were plated in DMEM 5% FBS-T at 600 k cells per well in 6-well plates. […] Laemmli buffer at various time points. Protein concentration of the extracts was analyzed by BioRad DC protein assay. 20 μg of proteins per condition were loaded on an SDS-PA gel and transferred to a nitrocellulose membrane for blotting. Blotting was done using ABCAM primary antibodies EP356 (anti-p53) T3526 (anti-Tubulin) and AB1761 (anti-acH4).
# purified human HDAC3 = purified human HDAC3 (Homo sapiens, UniProt O15379); experiment: Standard fluorescence HDAC assay; format: biochemical; conditions: purified human enzyme, read-out: IC50 against HDAC3
# SN12C = SN12C (Renal); 48 h
# NCI-H226 [3] = conditions: NCI-H226 (Non-Small cell lung cancer); 48 h
# ACHN [4] = experiment: cells; conditions: Homo sapiens, 48 h
# SF-268 = SF-268 (CNS); 48 h
# BT-549 = experiment: cells; conditions: Homo sapiens, BT-549, 48 h
# ACHN [5] = conditions: ACHN (Renal); 48 h
# NCI-H226 [6] = experiment: cells; conditions: Homo sapiens, NCI-H226, 48 h
# TK-10 [7] = experiment: cells; conditions: Homo sapiens, TK-10, 48 h
# UACC-257 = experiment: cells; conditions: Homo sapiens, UACC-257, 48 h
# CAKI-1 = CAKI-1 (Renal); 48 h
# NCI-H460 [8] = experiment: cells; conditions: Homo sapiens, NCI-H460, 48 h
# purified human HDAC6 = purified human HDAC6 (Homo sapiens, UniProt Q9UBN7); experiment: Standard fluorescence HDAC assay; format: biochemical; conditions: purified human enzyme, read-out: IC50 against HDAC6
# SK-MEL-28 = experiment: cells; conditions: Homo sapiens, SK-MEL-28, 48 h
# K-562 = experiment: cells; conditions: Homo sapiens, K562, 48 h
# EKVX = EKVX (Non-Small cell lung cancer); 48 h
# TK-10 [9] = conditions: TK-10 (Renal); 48 h
# CCRF-CEM = CCRF-CEM (Leukemia); 48 h
# DU-145 = DU-145 (Prostate); 48 h
# RARα = target: T1, RARα (Homo sapiens, UniProt P10276); experiment: BRET assay of agonist-dependent coactivator recruitment in transfected HEK293 cells; format: cell-based
# T1 sequence (P10276 1-462): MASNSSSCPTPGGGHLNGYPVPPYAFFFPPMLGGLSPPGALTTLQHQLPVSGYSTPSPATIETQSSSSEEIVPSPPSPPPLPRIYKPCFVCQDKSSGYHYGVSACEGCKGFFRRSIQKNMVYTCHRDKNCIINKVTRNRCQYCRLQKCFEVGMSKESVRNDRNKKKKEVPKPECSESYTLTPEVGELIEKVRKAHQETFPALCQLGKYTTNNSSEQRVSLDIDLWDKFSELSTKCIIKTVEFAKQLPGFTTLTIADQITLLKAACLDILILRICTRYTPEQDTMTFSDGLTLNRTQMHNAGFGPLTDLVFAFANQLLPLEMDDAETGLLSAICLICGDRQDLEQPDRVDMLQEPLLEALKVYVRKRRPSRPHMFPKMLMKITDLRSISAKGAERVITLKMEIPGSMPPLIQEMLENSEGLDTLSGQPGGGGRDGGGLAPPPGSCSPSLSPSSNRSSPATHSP
# Protocol: Hybrid 3 was prepared by treatment of the methyl ester of TTNN with excess hydroxylamine under alkaline conditions. The effects of hybrid 3 on RAR were initially assessed using a bioluminescence resonance energy transfer (BRET) assay. The BRET assay monitors agonist-dependent recruitment of coactivators to RARs in transfected HEK293 cells, chosen because of their high degree of transfectability. Energy transfer between luciferase (fused to RARα) and eGFP (fused to the LXXLL coactivator motif) occurs only when these moieties are juxtaposed by the RAR-LXXLL interaction, and can be detected by the emission of green fluorescence.
# Cell transfection and BRET assays: HEK293 cells were grown to confluence, trypsinized and plated at a density of 500 k cells per well (12-well plates) in DMEM supplemented with 10% charcoal treated FBS (FBS-T). The following day, cells were transfected with PEI using 0.1 μg of RAR-RLuc vector and 1 μg of LXXLL-eGFP vector. 48 hours post-transfection, cells were treated with retinoids for 2 hours before taking BRET measurements as described previously.
# purified human HDAC6, sequence (Q9UBN7 whole entry): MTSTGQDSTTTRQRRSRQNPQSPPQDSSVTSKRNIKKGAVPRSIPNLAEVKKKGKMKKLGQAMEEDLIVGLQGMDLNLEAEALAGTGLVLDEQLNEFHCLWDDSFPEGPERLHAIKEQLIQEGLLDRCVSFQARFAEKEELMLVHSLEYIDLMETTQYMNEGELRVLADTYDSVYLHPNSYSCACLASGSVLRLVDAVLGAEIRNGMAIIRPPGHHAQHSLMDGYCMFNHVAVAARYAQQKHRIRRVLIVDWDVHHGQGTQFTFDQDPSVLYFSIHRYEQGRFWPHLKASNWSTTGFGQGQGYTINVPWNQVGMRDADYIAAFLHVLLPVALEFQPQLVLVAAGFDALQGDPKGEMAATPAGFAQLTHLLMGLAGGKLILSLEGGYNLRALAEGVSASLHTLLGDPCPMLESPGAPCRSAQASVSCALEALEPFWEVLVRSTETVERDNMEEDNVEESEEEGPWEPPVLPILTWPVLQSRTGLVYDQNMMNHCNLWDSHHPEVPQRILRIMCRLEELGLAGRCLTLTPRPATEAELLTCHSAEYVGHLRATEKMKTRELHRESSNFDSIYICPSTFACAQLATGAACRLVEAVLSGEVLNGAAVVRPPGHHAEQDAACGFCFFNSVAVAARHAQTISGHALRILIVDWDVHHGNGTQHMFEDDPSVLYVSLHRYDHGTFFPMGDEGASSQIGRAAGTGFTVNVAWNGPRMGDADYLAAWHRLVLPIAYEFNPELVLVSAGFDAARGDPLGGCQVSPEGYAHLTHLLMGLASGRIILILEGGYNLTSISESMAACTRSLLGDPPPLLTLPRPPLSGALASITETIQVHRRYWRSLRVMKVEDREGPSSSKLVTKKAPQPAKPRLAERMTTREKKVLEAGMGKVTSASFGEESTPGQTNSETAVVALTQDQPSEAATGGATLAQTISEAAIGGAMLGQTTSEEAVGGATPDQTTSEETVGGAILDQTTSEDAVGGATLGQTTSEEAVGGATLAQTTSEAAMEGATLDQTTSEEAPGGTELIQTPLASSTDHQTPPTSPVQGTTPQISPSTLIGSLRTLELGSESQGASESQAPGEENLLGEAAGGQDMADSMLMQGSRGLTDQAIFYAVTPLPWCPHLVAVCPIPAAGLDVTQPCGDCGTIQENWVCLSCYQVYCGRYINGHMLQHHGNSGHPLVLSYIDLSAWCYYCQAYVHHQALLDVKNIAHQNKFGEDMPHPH
# purified human HDAC3, sequence (O15379 whole entry): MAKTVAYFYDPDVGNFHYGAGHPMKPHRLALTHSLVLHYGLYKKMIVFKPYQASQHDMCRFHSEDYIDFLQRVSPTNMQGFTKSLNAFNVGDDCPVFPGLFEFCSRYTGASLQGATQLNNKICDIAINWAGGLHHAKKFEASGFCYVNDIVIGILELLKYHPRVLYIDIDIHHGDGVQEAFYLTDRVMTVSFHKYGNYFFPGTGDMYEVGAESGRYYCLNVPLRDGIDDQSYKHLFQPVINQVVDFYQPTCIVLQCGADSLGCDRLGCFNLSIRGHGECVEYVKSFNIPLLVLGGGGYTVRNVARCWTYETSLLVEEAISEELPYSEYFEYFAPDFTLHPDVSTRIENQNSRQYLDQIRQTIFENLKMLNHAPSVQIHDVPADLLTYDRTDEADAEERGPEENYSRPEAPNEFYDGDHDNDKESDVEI
# purified human HDAC3, sequence (Q9Y618 395-489 partner limits assumed): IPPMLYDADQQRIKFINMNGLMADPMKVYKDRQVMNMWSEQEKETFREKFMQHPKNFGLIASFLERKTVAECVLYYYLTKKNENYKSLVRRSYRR
compound,measurement,setting,value
CC1(C)CCC(C)(C)c2cc(-c3ccc4cc(C(=O)NO)ccc4c3)ccc21 [hybrid 3],GI50,SNB-75,1.74 µM
same,CC50,SNB-75; read-out: LC50,24.9 µM
same,TGI,NCI-H460 [1],1.07 µM
same,GI50,NCI-H23,0.996 µM
same,CC50,NCI-H23; read-out: LC50,5.9 µM
same,GI50,KM12,0.616 µM
same,CC50,KM12; read-out: LC50,4.61 µM
same,TGI,SNB-19,2.36 µM
same,hyperacetylation of histone H4 and p53,[2],clear hyperacetylation
same,IC50,purified human HDAC3,5 µM
same,TGI,SN12C,2.37 µM
same,TGI,NCI-H226 [3],4.19 µM
same,GI50,ACHN [4],0.393 µM
same,CC50,ACHN [4]; read-out: LC50,5.09 µM
same,TGI,SF-268,1.85 µM
same,GI50,BT-549,1.42 µM
same,CC50,BT-549; read-out: LC50,19.7 µM
same,TGI,ACHN [5],1.49 µM
same,GI50,NCI-H226 [6],1.22 µM
same,CC50,NCI-H226 [6]; read-out: LC50,18.8 µM
same,GI50,TK-10 [7],1.1 µM
same,CC50,TK-10 [7]; read-out: LC50,25 µM
same,GI50,UACC-257,1.98 µM
same,CC50,UACC-257; read-out: LC50,29.7 µM
same,TGI,CAKI-1,1.03 µM
same,GI50,NCI-H460 [8],0.34 µM
same,CC50,NCI-H460 [8]; read-out: LC50,4.04 µM
same,IC50,purified human HDAC6,0.148 µM
same,GI50,SK-MEL-28,1.81 µM
same,CC50,SK-MEL-28; read-out: LC50,21.7 µM
same,GI50,K-562,0.399 µM
same,CC50,K-562; read-out: LC50,5.51 µM
same,TGI,EKVX,3.43 µM
same,TGI,TK-10 [9],4.97 µM
same,TGI,CCRF-CEM,1.95 µM
same,TGI,DU-145,1.9 µM
same,RARα agonism (BRET signal),"RARα; 1 μM, 2 hours treatment",agonists of RARα
same,EC50,"RARα; FIG. 2b, read-out: IC50 in inducing RARα (BRET dose-response)",1.02 µM
